{
  "source": "patent US5972901A",
  "about": "“Serpin enzyme complex receptor--mediated gene transfer” (Case Western Reserve University, priority 1996, dated 1999)",
  "key": {"SEC receptor [1]": {"test_system": "SEC receptor", "assay": "Binding of fluorescein labeled peptide to hepatoma cells (fluorescent cells)", "type": "cell-based, human", "description": "HuH7, HepG2 (high) and HepG2 (low) cells were plated in six well plates and transfected as described above. Fluorescein labeling was carried out with fluorescein isothiocyanate, as described previously [Mann and Fish (1972) Methods of Enzymology 26:28-42]. Briefly, the C1315 peptide (145 μg) was incubated with 1 mg of fluorescein isothiocyanate for 1 hr at room temperature. Following incubation, 10 mg/ml glycine was added to destroy excess reagent, the pH was adjusted to 6.0 by the addition of 1N HCl and the labeled peptide was then purified on a Sephadex G10 column (Bio-Rad).\nTwo days following transfection, cells were washed with Ca^2+ /Mg^2+ PBS, incubated with 100 nM fluorescein labeled C1315 peptide and diluted in binding buffer (DMEM containing 50 mM Hepes, 0.1 mg/ml cytochrome c, 0.01% Tween 80, 2 mg/ml bovine serum albumin) at 4° C. Individual cells were imaged on a Zeiss axiovert 35 microscope at an excitation wavelength of 493.5 nm and a measurement wavelength of 530 nm. Digital images were captured by a cooled CCD camera model CH250 for 25 seconds (Photometrics, Ltd., Tucson, Ariz.) and quantified by a Nu 2000 camera controller board (Photometrics) with a Macintosh Quadra 900 configuration. Data was processed with Oncor image software (Oncor Imaging, Rockville, Md.).\nBoth HuH7 and HepG2 cell lines were transfected with the pCMV lac Z II plasmid coding for the β-galactosidase protein as a complex with the C1315 peptide carrier or using Lipofectin®, as described above; three days after transfection, the cells were harvested and β-galactosidaseactivity was determined. Cells staining blue represent cells expressing β-galactosidase; fluorescent cells represent cells which bound the fluoresceinated C105Y peptide. Cells which were counted as blue or fluorescent were intensely stained. The average % values represent the number of cells which were blue or fluorescent per 100 randomly selected cells. The results represent 6 independent experiments conducted. […]"}, "hepatoma cells": {"test_system": "hepatoma cells", "assay": "Cell death / viability during transfection of hepatoma cells", "conditions": "10 fold molar excess", "method": "After addition of the complex and/or Lipofectin®, all cells were incubated at 37° C. for six hours. Cells were then rinsed with Ca^2+ /Mg^2+ PBS and fresh growth media added and incubated at 37° C. (with a change of media every 2 days) until the appropriate functional assay was performed. Competition experiments were conducted by transfecting HepG2 (high) cells with 1.11 pmol C1 315 carrier condensed DNA in the presence and absence of a 10 fold excess free C1315 peptide. All transfections were done in duplicate."}, "SEC receptor [2]": {"test_system": "SEC receptor", "assay": "125I-C105Y cell surface SEC receptor binding, Scatchard analysis", "design": "species or system human", "conditions": "for Kd: 4° C.", "description": "Peptide C105Y was radio-iodinated by a modification of the chloramine T method [Hunter and Greenwood (1962) Nature 194:49] as follows. Briefly, approximately 50 μg of the C105Y peptide in 20 μl PBS was mixed with 20 μl chloramine T (120 mg/10 ml) and 1 mCi ^125 I (DuPont-New England Nuclear, Boston, Mass.). The reaction mixture was incubated for 30 seconds at room temperature and then 50 μl of sodium metabisulfite (36 mg/10 ml) was added. The labeled C105Y peptide was purified on a Sephadex G10 column (Bio-Rad) which had been blocked by application of 3 mg/ml BSA in PBS prior to the addition of the iodinated peptide. The specific radioactivity of ^125 I peptide C105Y ranged between 3,500 and 11,700 dpm/ng.\nHuH7 cells and two populations of HepG2 cells were studied. Cells were plated in 24 well tissue culture plates, allowed to become confluent, then thoroughly washed with phosphate-buffered saline containing 1 mM CaCl2 and 2.5 mM MgCl2 (Ca^2+ /Mg^2+ PBS) and incubated at 4° C. for 2 h with ^125 I-labeled ligand (e.g., C105Y) at concentrations of 12.5 to 400 nM in the absence or presence of 200 fold excess unlabeled ligand and diluted in binding medium (DMEM containing 50 mM HEPES, 0.1 mg/ml cytochrome c, 0.01% Tween 80, 2 mg/ml bovine serum albumin). The cells were then rinsed in Ca^2+ Mg^2+ PBS, homogenized in 1 N NaOH, and cell-associated radioactivity determined. Non-specific binding was determined by incubating cells with a 200 fold molar excess of cold ligand. Specific binding was defined as the difference between total and non-specific binding. Binding parameters were determined by Scatchard analysis. Binding assays were performed on all three cell lines [HuH7, HepG2 (high), and HepG2 (low)] simultaneously with the same batch of iodinated C105Y peptide so that the proper comparisons could be made.\nIn FIG. 22, the specific binding (expressed as cpm/one million cells) is plotted against the concentration of iodinated C105Y ppeptide (nM). Traces are shown for the specific binding of ^125 I-C105Y to HuH7 cells (.smallcircle.), HepG2 (high) cells (.quadrature.) and HepG2 (low) cells (.diamond.). Specific binding was determined by subtracting […]."}},
  "data": [
    {"molecule": "CC[C@H](C)C(=O)O[C@H]1C[C@@H](C)C=C2C=C[C@H](C)[C@H](CC[C@@H]3C[C@@H](O)CC(=O)O3)[C@H]21", "note": "[lovastatin]", "values": [
      {"measurement": "cholesterol concentration relative to that prior to the first gene transfer", "setting": "total serum cholesterol; rabbit #774, gene transfer followed by 10 mg per day for 10 weeks", "value": 40, "unit": "%"},
      {"measurement": "further reduction in the levels of cholesterol", "setting": "total serum cholesterol; rabbit #774 after gene transfer, 10 mg per day orally for 10 weeks", "value": 20, "unit": "%"}
    ]},
    {"molecule": "CFLEAIPMSIPPEVKFNKPFVFLIIHRD [C1315]", "values": [
      {"measurement": "Average % Fluorescent Cells", "setting": "SEC receptor [1]; HepG2(high)", "value": "20.4 ± 11.2", "unit": "%"},
      {"measurement": "Average % Fluorescent Cells", "setting": "SEC receptor [1]; HepG2(low)", "value": "1.8 ± 1.4", "unit": "%"},
      {"measurement": "Average % Fluorescent Cells", "setting": "SEC receptor [1]; HuH7", "value": "14.3 ± 4.0", "unit": "%"},
      {"measurement": "effect of excess free peptide on cell viability", "setting": "hepatoma cells", "value": "no effect on cell viability"}
    ]},
    {"molecule": "CSIPPEVKFNKPFVYLI [C105Y]", "values": [
      {"measurement": "binding by HuH7 cells relative to HepG2 (high), more", "setting": "SEC receptor [2]", "value": 1.5, "unit": "fold"},
      {"measurement": "specific binding by HepG2 (low) cells relative to HepG2 (high) cells, less", "setting": "SEC receptor [2]", "value": 7.5, "unit": "fold"},
      {"measurement": "specific binding by HepG2 (low) cells relative to HuH7 cells, less", "setting": "SEC receptor [2]", "value": 10, "unit": "fold"},
      {"measurement": "Kd", "setting": "SEC receptor [2]; HepG2 (high) cells, Scatchard analysis", "value": 50, "unit": "nM"},
      {"measurement": "Kd", "setting": "SEC receptor [2]; HepG2 (low) cells", "value": "~22.5", "unit": "nM"},
      {"measurement": "Kd", "setting": "SEC receptor [2]; HuH7 cells", "value": "~70", "unit": "nM"}
    ]}
  ]
}
